One series relates to NMDA receptors. The experiment in a line: Whole-cell patch-clamp recording of NMDA-activated current in cultured cortical neurons. It is filed as cell-based, rat. As to conditions: for EC50: n = 6–8. As for the experimental part: (§1) Primary cortical neurons were prepared from embryonic E18 Sprague-Dawley rats and cultured in neurobasal medium supplemented with B27 [24]. Briefly, cortices were explanted and cleaned free of meninges. The cortices were placed in D-Hanks’ solution and digested at 37°C with 0.05% trypsin-EDTA for 6 min. They were subsequently resuspended in DMEM medium supplemented with 20% fetal calf serum and 1% penicillin/streptomycin to stop digestion and were further dissociated into individual cells by trituration and plated on poly-D-lysine-coated glass coverslips in culture dishes at a density of 7×10^5 cells/ml. After the neurons had attached to the coverslips for 2 hrs, the medium was changed to neurobasal medium containing 2% B27 supplement. Neurons were incubated at 37°C in a humidified atmosphere of 5% CO2 for 7–8 days before electrophysiological experiments.
Whole-cell patch-clamp recordings were carried out at room temperature (22–25°C) using an Axopatch 700A patch-clamp amplifier (Axon Instruments, Inverurie, Scotland). Data acquisition was achieved using a DigiData 1322A with pClamp 9.0 software. The acquisition rate was 10 kHz and signals were filtered at 5 kHz. Patch electrodes were pulled with a Flaming/Brown micropipette puller (Sutter Instruments, Novato, CA) and fire-polished. […] For the voltage-clamp recordings, the capacity transients were cancelled using the resistance capacitance circuit within the amplifier. After the formation of whole-cell configuration, access resistances were generally <15 MΩ. Series resistance compensation was set to 70%–90%. The liquid junction potential was approximately 2 mV and was auto-adjusted each time by pipette offset. To record NMDA/AMPA-activated currents, the external solution [(containing (mM): NaCl 150, KCl 5, CaCl2 0.2, glucose 10 and HEPES 10, pH adjusted to 7.4 with NaOH)] and the pipette solution [containing (mM): KCl 140, MgCl2 2.5, HEPES 10, EGTA 11, ATP 5, pH adjusted to 7.3 with KOH] were used. For voltage-clamp recordings, the membrane potential was held at −70 mV, unless noted otherwise. Drug solutions were prepared in extracellular solutions and applied to neurons by pressure using the 8-Channel Focal Perfusion System (ALA Scientific Instruments, Farmingdale, NY). Neurons were bathed constantly in extracellular solution between drug applications. Drug solution exchange was accomplished by electronic control.
Patch-clamp data was processed using Clampfit 9.0 (Axon Instruments) and then analyzed in Origin 7.5 (OriginLab, Northampton, MA). The dose-response curve was fitted to the logistic equation: y = (A1–A2)/[1+ (x/x0 )^p]+A2, where y is the response, A1 and A2 are the maximum and minimum response, respectively, x0 is the concentration corresponding to half-maximal effect, x is the drug concentration, and p is the Hill coefficient.
The onset and offset rates of 2-BFI were measured from the recordings by the binding kinetic protocol, where a single concentration of 2-BFI was applied in the constant presence of agonists. Tauon and Tauoff were obtained by a single exponential function fit: I = A×[1-exp(-t/τ)]+I 0, where I is the current, I 0 is the steady-state amplitude of the current, A is the difference between the peak and steady state current amplitudes, t is time, and τ is the time constant.
In general terms: In patch-clamp work, channel activity is measured electrically.

A further series deals with AMPA receptor. The experiment in a line: Whole-cell patch-clamp recording of AMPA-activated current in cultured cortical neurons. The series is classed as cell-based, rat. The note with it: 200 µM 2-BFI; 100 µM AMPA; paired t-test P>0.05, n = 8. As for the experimental part:
as §1
(§2) Whole-cell patch-clamp recordings were carried out at room temperature (22–25°C) using an Axopatch 700A patch-clamp amplifier (Axon Instruments, Inverurie, Scotland). Data acquisition was achieved using a DigiData 1322A with pClamp 9.0 software. The acquisition rate was 10 kHz and signals were filtered at 5 kHz. Patch electrodes were pulled with a Flaming/Brown micropipette puller (Sutter Instruments, Novato, CA) and fire-polished. […]

The next series concerns rat cortical neurons. In words: Effect of 2-BFI alone on neuronal excitability (current and membrane potential). It is filed as cell-based. As to conditions: 3–1000 µM 2-BFI. The procedure:
as §1, §2

The test system of series [1] is NMDA receptor-mediated [Ca2+]i influx. In words: Ratiometric Fura-2 measurement of NMDA-evoked [Ca2+]i in cortical neurons. It is filed as cell-based, mouse. The note with it: for reversibility of block of NMDA receptor-mediated [Ca2+]i influx on removal of inhibitor: MK801 10 µM, 2-BFI 200 µM, memantine 10 µM, NMDA 100 µM, wash with PSS, n = 20 cells per treatment. The procedure: Ratiometric measurement of [Ca^2+]i was performed using Fura-2 AM [25]. Briefly, mouse cortical neurons at 7 days-in-vitro on glass coverslips were loaded with 5 µM Fura-2-AM (Molecular Probes, Eugene, CA) plus 0.02% pluronic (Life Technologies, INC, Burlington, ON, Canada) for 30 min at 37°C. After rinsing with PSS Mg^2+ free buffer containing 2 mM HEPES (pH 7.2), 140 mM NaCl, 5 mM KCl, 2.3 mM CaCl2, and 10 mM glucose, and stabilized in the same buffer for 5 min, Fura-2 intensities were measured using a Northern Eclipse Digital Ratio Image System (EMPIX, Mississauga, ON, Canada) with an Axiovert 200 camera and light source (Zeiss, Thornwood, NY). Fura-2 fluorescence was measured at 510 nm emission with 340/380 nm dual excitation selected by a DG-5 system (Sutter Instrument Company, Novato, CA). [Ca^2+]i concentration was represented by the ratio of florescence intensity between the two excitation wavelengths of R340/380 of Fura-2 after correction for background. R340/380 for 10 cells in one field of each coverslip was averaged. The basal level of [Ca^2+]i was recorded for 20 sec, followed by the application of inhibitors. […] [Ca^2+]i was recorded for 60–100 sec. After washing with PSS buffer for 300 sec, PSS buffer containing 45 mM KCl was added to neurons to record changes in [Ca^2+]i for 60 sec to show viability of neurons. All measurements were repeated for at least 3 times. The data was analyzed using Microsoft Excel and presented as the mean of three experiments.

The test system of the next series is cortical neurons. In words: Neuroprotection against NMDA excitotoxicity (nuclear staining, Alamar Blue viability). The series is classed as cell-based, rat. The note with it: for number of condensed nuclei (NMDA-induced neuronal death): nuclear staining of cortical neurons treated with NMDA. The procedure: as §1
After 7 days-in-vitro, cortical neurons were treated with the specific inhibitor for 15 min prior to the addition of 100 µM glutamate or 200 µM NMDA at 37°C. The plates were then incubated for up to 24 h at 37°C in the presence or absence of inhibitors. Untreated cells were also included as controls. At the end of the treatment period, cells were either fixed for staining or subjected to a neuronal viability assay using Alamar Blue (Invitrogen). Stained cells were examined under a fluorescent microscope (Carl Zeiss, AX10 vert 200M), and digital images were taken and analyzed using Image J software (http://rsbweb.nih.gov/ij/). The viability of cortical neurons treated with NMDA, and with or without inhibitors as mentioned, was assayed using an Alamar Blue assay (Invitrogen). Briefly, a 1∶10 dilution of Alamar blue was added to cells for 1 h at 37°C. One third of the medium was removed and read in a 96-well plate using a plate reader with λEx = 530 nm and λEm = 590 nm. At minimum, a triplicate reading was obtained per experiment with three independent repeats.
(The colour change of resazurin is a common sign of viable cells or microbes.)

For series [2], the system named is spectrin breakdown product (SBP). It is filed as cell-based, rat. As to conditions: 2 h treatment with NMDA; Western blot.
Series [3] addresses [3H]2-BFI binding sites (I2-imidazoline receptors). Details: method as in PMID 9228188. The note with it: cerebral cortex; read-out: Ki for a single class of [3H]2-BFI binding sites; cited from earlier work.
On the set-up of series [4]: method as in PMID 9228188. The note with it: cited from earlier work.
In the next series the test system is rodents. Details: method as in PMID 19508825, PMID 20840843, PMID 22771326, PMID 19083996, PMID 21303658. As to conditions: previous animal studies; cited from earlier work.
In series [5] the test system is transient cerebral ischemia. Details: method as in PMID 19508825, PMID 20840843, PMID 22771326. The note with it: rodent model of stroke; cited from earlier work.
For another series, the system named is NMDAR. The note with it: read-out: IC50 of memantine; at −70 mV; ref not given; cited from earlier work.

The structures appear in SMILES notation. Like-named read-outs stand apart in the source and are kept apart here.

Usually IC50 stands for the midpoint of a concentration-inhibition curve. Broadly, the Ki is a dissociation constant, usually derived from enzyme kinetics or from competition with a known ligand. Consider `c1ccc2oc(C3=NCCN3)cc2c1` [2-BFI, 2-(2-benzofu-ranyl)-2-imidazoline], for which the “average reversal potential of current activated by NMDA and glycine” value with NMDA receptors (30 µM NMDA and 1 µM glycine in the presence of 200 µM 2-BFI, n = 6) was found to be 2.8±3.2 mV. Moreover, in the series with NMDA receptors (30 µM NMDA plus 1 µM glycine, 2-BFI 10–2000 µM pre-applied 30 s, −70 mV, n = 6, read-out: IC50 for inhibition of NMDA-activated current), the IC50 is 124 ± 13.1 µM. Further, the “slope factor of the concentration-response curve for inhibition of NMDA-activated current” value in the series on NMDA receptors (30 µM NMDA plus 1 µM glycine, −70 mV, n = 6) was 1.2±0.1. In addition, the “effect on Emax of NMDA and glycine” value in the series on NMDA receptors (200 µM 2-BFI) is on record as “greatly reduced”. In the series with NMDA receptors (200 µM 2-BFI, 30 µM NMDA plus 1 µM glycine, paired t-test P<0.001, n = 8), the “inhibition of NMDA-induced currents” value is “marked inhibition”. In the series with NMDA receptors (200 µM 2-BFI, membrane potentials from −60 mV to +60 mV, ANOVA P>0.05, n = 6), the “voltage dependence of average inhibition of NMDA-activated current” value is reported as “not significantly different”. Also, the “mode of NMDAR antagonism” value with NMDA receptors (EC50s and slope factors of NMDA and glycine unchanged by 200 µM 2-BFI) is recorded as “non-competitive antagonist”. The “reversibility of inhibition of NMDA-activated current” value with NMDA receptors (after a few seconds of washing) was “fully reversible”. Besides, the Kd in the series with NMDA receptors (from fitted kinetic values, read-out: Kd = Koff/Kon) was 305.94 ± 0.3 µM. In addition, in the series with NMDA receptors (kinetic protocol, constant presence of 30 µM NMDA plus 1 µM glycine, single exponential fit), the Koff is 0.67 ± 0.02 s⁻¹. Also, the “inhibition of AMPA-induced currents” value in the series on AMPA receptor is “did not inhibit”. In addition, in the series on rat cortical neurons, the “effect of 2-BFI alone on membrane potential” value was “nor affected the membrane potential”. For the same molecule, the “current induced by 2-BFI alone” value in the series on rat cortical neurons (−50 mV) is on record as “neither induced any detectable current”. In [1] (10–1000 µM 2-BFI, 100 µM NMDA, n = 20 cells per dose point), the “effect on NMDA-evoked [Ca2+]i influx” value is reported as “significantly suppressed”. Further, the “reversibility of block of NMDA receptor-mediated [Ca2+]i influx on removal of inhibitor” value (from here on “reversibility of block … of inhibitor”) in [1] is listed as “able to respond to NMDA (100 µM) almost immediately”. For the same molecule, the “protection against NMDA toxicity, Alamar blue assay” value with cortical neurons (dose- and time-course, paired t-test P<0.01, n = 8) was “Dose-dependent neuroprotection”. For the same molecule, the “number of condensed nuclei (NMDA-induced neuronal death)” value (from here on “number of condensed nuclei”) with cortical neurons is “reduced”. Further, the “level of spectrin breakdown product (SBP)” value (shortened to “level”) in series [2] is “effectively reduced”. For the same molecule, in [3], the inhibitory constant (Ki) is 0.0098 µM. In [4], the “crossing of the blood brain barrier” value is given as “able to cross the blood brain barrier”. In the series with rodents, the “side effects of administration to rodents” value is on record as “no visible side effects”. For the same molecule, in series [5], the “neuroprotection against transient cerebral ischemia” value was “potently and dose-dependently neuroprotective”.
As to `c1ccc2c(c1)OCC(C1=NCCN1)O2` (stereo not shown) [Idazoxan], in [4], the “crossing of the blood brain barrier” value is recorded as “readily cross the blood brain barrier”. In addition, the “neuroprotection against transient cerebral ischemia” value in [5] is “potently and dose-dependently neuroprotective”.
For `C[C@]12N[C@H](Cc3ccccc31)c1ccccc12` [MK801], the “reversibility of block … of inhibitor” value in [1] was “non-reversibly blocked”. In the series with cortical neurons, the “number of condensed nuclei” value was “reduced”. In addition, the “level” value in series [2] was “effectively reduced”.
A word on the EC50: it is the concentration that produces a half-maximal response. With `CN[C@H](CC(=O)O)C(=O)O` [NMDA, N-methyl-D-aspartic acid], the “slope factor of NMDA concentration-response curve” value was 1.25±0.1 in the series on NMDA receptors (in the absence of 2-BFI, 1 µM glycine) and 1.25±0.6 in the series with NMDA receptors (in the presence of 200 µM 2-BFI, 1 µM glycine). Moreover, the EC50 in the series on NMDA receptors (in the absence of 2-BFI, 1 µM glycine, read-out: EC50 of NMDA for current activation) was 33.7 ± 4.3 µM.
In the case of `NCC(=O)O` [glycine], the “slope factor of glycine concentration-response curve” value was 0.39±0.2 in the series on NMDA receptors (in the absence of 2-BFI, 30 µM NMDA) and 0.58±0.6 in the series on NMDA receptors (in the presence of 200 µM 2-BFI, 30 µM NMDA). Further, the EC50 with NMDA receptors (in the absence of 2-BFI, 30 µM NMDA, read-out: EC50 of glycine for current activation) came to 1.52 ± 1.6 µM.
For `CC12CC3CC(C)(C1)CC(N)(C3)C2` [memantine], the “reversibility of block … of inhibitor” value in series [1] was “able to respond to NMDA (100 µM) almost immediately”. The “number of condensed nuclei” value with cortical neurons is reported as “reduced”. Also, in series [2], the “level” value was “effectively reduced”. In addition, the IC50 with NMDAR was 1.2 µM.

Source of the values: article PMC3669129, “Fast, Non-Competitive and Reversible Inhibition of NMDA-Activated Currents by 2-BFI Confers Neuroprotection” (PLoS ONE, 2013).
